Experimental data published in US6375999B1, “Methods for treating potatoes” (priority 1993, dated 2002).

Tests used:
freshly dug potatoes = assay: outdoor pile of injured, freshly dug potatoes sprayed with pure 1,4-dimethyl naphthalene; format: in vivo, potato; settings: outdoors, humidity about 40%, no control sample
Text: A pile of freshly dug potatoes having considerable injuries such as cuts, scrapes and abrasions were sprayed with pure 1,4-dimethyl naphthalene. The pile was located outdoors with a humidity condition of about 40%. […] Although a control sample wasn't used, potatoes with such a large quantity of cuts, abrasions and the like in an exposed, low humidity environment would typically show minimal healing and a considerable amount of rot.

stored potatoes [1] = assay: low humidity storage after early treatment with 1,4-DMN; format: in vivo, potato; settings: storage conditions of 85%, and less
Text: No approved method exists for treating silver scruff. Effective fungicides are not approved for treatment of potatoes. […] A disadvantage of low humidity storage is that such potatoes dehydrate and soften. This causes the potatoes to be less acceptable for certain markets and results in some loss of product.

stored potatoes [2] = settings: early application to stored potatoes; cited from earlier work
[3] = test system: potatoes which have started to sprout; assay: treatment of potatoes which have started to sprout; format: in vivo, potato; settings: certain types of potatoes which have started to sprout
Text: For example, in treating a potato storage facility with liquid sprout inhibitor such as an isomer of DMN, especially the 1,4 and 1,6 isomers of DMN, it is only necessary to have a very low concentration of DMN in the atmosphere inasmuch as the quantity of DMN in a potato is very low so that only very minor quantities of DMN respire or exit the potato. Thus, only a very low partial pressure for DMN is created in a static air space surrounding a potato by respiration. The purpose of DMN in the atmosphere surrounding potatoes is to stop or reduce the exiting of DMN from the potato. Once DMN exiting starts, it is believed that such departure initiates the process which leads to sprouting. […] Thus, in applying liquid sprout inhibitors which are found natively in potatoes it is generally preferred to initiate treatment prior to the onset of sprouting and preferably prior to any considerable exiting of DMN, for example, from the stored potato.
Although, as indicated in the Plant patent, CIPC is not applied until after suberization (wound healing). DMN is preferably applied initially shortly after the potatoes have been put into the facility. […] Also, unlike CIPC, DMN is not a foreign material to a potato.

Row | SMILES | evidence of rot in injured potatoes (freshly dug potatoes; about two days after spraying) | time after spraying until suberization processes appeared to be complete (freshly dug potatoes; pure compound sprayed) | hydration and firmness of potatoes in low humidity storage (stored potatoes [1]) | effect on suberization (stored potatoes [2]) | effect on sprouting once sprouting has been initiated [3]
1 | Cc1ccc(C)c2ccccc12 [1,4-dimethyl naphthalene] | only a small portion of the injured potatoes showing any evidence of rot | two | stay hydrated and firm |  | 
2 | CC(C)OC(=O)Nc1cccc(Cl)c1 [CIPC, Chloroisopropyl-N-carbamate] |  |  |  | tends to retard suberization | generally retard potato sprouting even after sprouting has been initiated
